According to article PMC5642271 (American journal of veterinary research, 2016):
“Also recorded” adds a separate entry of the source. Read-outs that look alike come from different tables or passages of the source.

Legend:
[1] = tested on: canine osteosarcoma and malignant melanoma cell lines; conditions: immortalized canine cell lines; cited from earlier work
[2] = tested on: dogs with experimental renal allografts; conditions: cited from earlier work
[3] = blood samples stored frozen at −80°C for 90 days and subsequently thawed; cited from earlier work
[4] = tested on: dogs with osteosarcoma; conditions: cited from earlier work
[5] = tested on: mTOR pathway; conditions: IM 0.01 to 0.08 mg/kg, peripheral blood mononuclear cells and tumor biopsy specimens, each dose cohort; cited from earlier work
[6] = Pharmacokinetics of rapamycin in blood after oral dosing once daily for 5 days; format: in vivo, dogs
[7] = Pharmacokinetics of rapamycin in blood after a single oral dose; format: in vivo, dogs; conditions: experiment 1: 0.1 mg/kg PO once
[8] = tested on: healthy dogs; assay: Monitoring of adverse effects in healthy dogs during the study; format: in vivo; conditions: 0.1 mg/kg PO once (experiment 1) and once daily for 5 days (experiment 2), vomiting between 3 and 5 hours after administration on day 4 of experiment 2
[9] = experiment 2, day 5 of 0.1 mg/kg PO once daily, compartmental NME analysis
[10] = experiment 2: 0.1 mg/kg PO once daily for 5 days, compartmental NME analysis, value before the change on day 5, mean for 4 dogs
[11] = experiment 2: 0.1 mg/kg PO once daily for 5 days, whole blood, mean of n = 4, SD
[12] = compartmental NME analysis, 5 dogs

SMILES: CO[C@H]1C[C@@H]2CC[C@@H](C)[C@@](O)(O2)C(=O)C(=O)N2CCCC[C@H]2C(=O)O[C@H]([C@H](C)C[C@@H]2CC[C@@H](O)[C@H](OC)C2)CC(=O)[C@H](C)/C=C(\C)[C@@H](O)[C@@H](OC)C(=O)[C@H](C)C[C@H](C)/C=C/C=C/C=C/1C [rapamycin, Rapamycin]
- viable tumor cells after exposure to rapamycin [1]: significant, dose-dependent decrease in viable tumor cells
- prevention of renal allograft rejection ([2]; 0.05 mg/kg, IV): did not provide sufficient immunosuppression to prevent rejection of the renal allograft
- prevention of renal allograft rejection ([2]; 0.1 mg/kg, IM q 48 h or twice weekly, in combination with cyclosporine and antilymphocyte serum): not sufficient to prevent renal allograft rejection
- rapamycin concentration in stored blood samples (stability) [3]: not substantially affected
- maximally tolerated dose ([4]; IM injection, doses ranging from 0.01 to 0.08 mg/kg): a maximally tolerated dose was not achieved
- injection site reaction ([4]; dog, in vivo): sterile abscesses at the injection site
- modulation of the mTOR pathway [5]: modulation of the mTOR pathway was detected
- mean V1/f on the last day (day 5) of administration [6, 9]: 16.8 L/kg
- mean ka on the last day (day 5) of administration [6, 9]: 2.17 h⁻¹
- V2/f, volume of the peripheral compartment after oral administration, mean estimate ([6]; experiment 2: 0.1 mg/kg PO once daily for 5 days, compartmental NME analysis, mean for 4 dogs): 22.1 L/kg
- V1/f, volume of the central compartment after oral administration, mean estimate [6, 10]: 4.53 L/kg
- ka, absorption rate constant, mean estimate [6, 10]: 0.294 h⁻¹
- Tmax (mean ± SD) ([6]; experiment 2: 0.1 mg/kg PO once daily for 5 days, mean of n = 4, SD): 4.5 ± 1.0 h
- Cmax (mean ± SD) [6, 11]: 5.49 ± 1.99 ng/mL
- concentration 48 hours after drug administration (mean ± SD) [6, 11]: 1.70 ± 0.40 ng/mL
- Parameter characterizing the change in ka on the last day (day 5) of rapamycin administration in experiment 2 ([6]; βOCC2 of the NME model, θμD5 = θμD1−4e^βOCC2, P = 0.002): 2.0
- Parameter characterizing the change in V1/f on the last day (day 5) of rapamycin administration in experiment 2 ([6]; βOCC2 of the NME model, P = 0.002): 1.31
- V1/f, volume of the central compartment after oral administration, mean estimate [7, 12]: 6.74 L/kg
- V2/f, volume of the peripheral compartment after oral administration, mean estimate [7, 12]: 18.1 L/kg
- ka, absorption rate constant, mean estimate [7, 12]: 0.358 h⁻¹
- Cmax (mean ± SD) ([7]; whole blood, mean of n = 5, SD): 8.39 ± 1.73 ng/mL
- Tmax (mean ± SD) ([7]; whole blood, mean of n = 5, SD): 3.3 ± 2.5 h
- concentration 48 hours after drug administration (mean ± SD) ([7]; whole blood, mean of n = 5, SD): 1.38 ± 0.45 ng/mL
- t1/2, terminal half-life (mean ± SD) ([7]; whole blood, noncompartmental, mean of n = 5, SD): 38.7 ± 12.7 h
- adverse effects observed [8]: None of the dogs had a substantial change in energy level, appetite, water intake, urination, or defecation; also recorded: One dog vomited once; also recorded: No other adverse effects were observed
